Source: US10323022B2, “Pyrrolidinyl urea, pyrrolidinyl thiourea and pyrrolidinyl guanidine compounds as TrkA kinase inhibitors” (Array BioPharma Inc., priority 2011, dated 2019)
Counter-ions that a name gives are not always drawn.

These compounds were tested against TrkA (Homo sapiens (Human), UniProt P04629) (assay: TrkA Omnia Assay). Conditions: averaged IC50; 20 nM enzyme, 500 μM ATP, 10 μM peptide substrate.
Type: biochemical
Outline: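 Recombinant TrkA (20 nM) preincubated 10 min at ambient temperature with compound, then Omnia Tyr Peptide #4 (10 μM) and ATP (500 μM) added in 25 mM MOPS pH 7.5, 5 mM MgCl2, 0.005% Triton X-100. Fluorescence (ex 360/em 485 nm) followed continuously for 70 min; IC50 from initial rates by 4- or 5-parameter logistic fit.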

TrkA, sequence (P04629 33-796): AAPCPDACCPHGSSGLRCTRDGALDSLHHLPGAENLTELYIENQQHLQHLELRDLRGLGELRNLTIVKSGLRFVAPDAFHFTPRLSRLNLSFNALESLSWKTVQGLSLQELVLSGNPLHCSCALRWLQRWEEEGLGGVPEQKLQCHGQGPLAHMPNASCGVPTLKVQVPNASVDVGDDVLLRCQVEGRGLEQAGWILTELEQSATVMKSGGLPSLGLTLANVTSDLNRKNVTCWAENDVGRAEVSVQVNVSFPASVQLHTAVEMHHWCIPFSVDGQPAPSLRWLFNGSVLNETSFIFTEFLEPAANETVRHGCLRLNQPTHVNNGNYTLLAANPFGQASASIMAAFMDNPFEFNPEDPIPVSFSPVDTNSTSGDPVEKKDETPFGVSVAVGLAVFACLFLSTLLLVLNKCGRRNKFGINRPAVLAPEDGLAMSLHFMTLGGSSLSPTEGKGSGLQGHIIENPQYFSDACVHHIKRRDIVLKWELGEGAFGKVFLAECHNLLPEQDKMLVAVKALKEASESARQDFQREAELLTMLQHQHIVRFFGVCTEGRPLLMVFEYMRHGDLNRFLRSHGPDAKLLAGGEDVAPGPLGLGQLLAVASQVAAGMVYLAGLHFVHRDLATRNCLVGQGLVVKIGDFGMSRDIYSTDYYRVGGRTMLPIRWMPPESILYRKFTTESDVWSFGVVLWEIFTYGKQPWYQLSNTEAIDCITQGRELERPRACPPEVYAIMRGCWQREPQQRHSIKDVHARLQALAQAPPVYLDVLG

Compound | IC50 [nM]
Cc1c(-c2cnc(N)nc2)nn(-c2ccccc2)c1NC(=O)N[C@H]1CN(CC(F)(F)F)C[C@@H]1c1ccccc1 [Example 522, 1-(3-(2-aminopyrimidin-5-yl)-4-methyl-1-phenyl-1H-pyrazol-5-yl)-3-((3R,4S)-4-phenyl-1-(2,2,2-trifluoroethyl)pyrrolidin-3-yl)urea bis(2,2,2-trifluoroacetate)] | < 100
CCn1cc(-c2nn(-c3ccccc3)c(NC(=O)N[C@@H]3CN(CCOC)C[C@H]3c3ccc(F)cc3)c2C)cn1 [Example 524, 1-(1′-ethyl-4-methyl-1-phenyl-1H, 1′H-[3,4′-bipyrazol]-5-yl)-3-((3S,4R)-4-(4-fluorophenyl)-1-(2-methoxyethyl)pyrrolidin-3-yl)urea] | < 100
COCCN1C[C@@H](NC(=O)Nc2c(C)c(-c3cnc(OC)nc3)nn2-c2ccccc2)[C@H](c2ccc(F)cc2)C1 [Example 528, 1-((3S,4R)-4-(4-fluorophenyl)-1-(2-methoxyethyl)pyrrolidin-3-yl)-3-(3-(2-methoxypyrimidin-5-yl)-4-methyl-1-phenyl-1H-pyrazol-5-yl)urea] | < 100
COCCN1C[C@@H](NC(=O)Nc2c(C)c(-c3cnc(N(C)C)nc3)nn2-c2ccccc2)[C@H](c2ccc(F)cc2)C1 [Example 529, 1-(3-(2-(dimethylamino)pyrimidin-5-yl)-4-methyl-1-phenyl-1H-pyrazol-5-yl)-3-((3S,4R)-4-(4-fluorophenyl)-1-(2-methoxyethyl)pyrrolidin-3-yl)urea] | < 100
CCn1cc(-c2nn(-c3ccccc3)c(NC(=O)N[C@@H]3CN(CCOC)C[C@H]3c3cccc(F)c3)c2C)cn1 [Example 530, 1-(1′-ethyl-4-methyl-1-phenyl-1H,1′H-[3,4′-bipyrazol]-5-yl)-3-((3S,4R)-4-(3-fluorophenyl)-1-(2-methoxyethyl)pyrrolidin-3-yl)urea] | < 100
COCCN1C[C@@H](NC(=O)Nc2c(C)c(-c3ccn(C)c(=O)c3)nn2-c2ccccc2)[C@H](c2cccc(F)c2)C1 [Example 531, 1-((3S,4R)-4-(3-fluorophenyl)-1-(2-methoxyethyl)pyrrolidin-3-yl)-3-(4-methyl-3-(1-methyl-2-oxo-1,2-dihydropyridin-4-yl)-1-phenyl-1H-pyrazol-5-yl)urea] | < 100
COCCN1C[C@@H](NC(=O)Nc2c(C)c(-c3ccn(C)c(=O)c3)nn2-c2ccccc2)[C@H](c2ccc(F)cc2)C1 [Example 532, 1-((3S,4R)-4-(4-fluorophenyl)-1-(2-methoxyethyl)pyrrolidin-3-yl)-3-(4-methyl-3-(1-methyl-2-oxo-1,2-dihydropyridin-4-yl)-1-phenyl-1H-pyrazol-5-yl)urea] | < 100
COCCN1C[C@@H](NC(=O)Nc2c(C)c(-c3ccc(=O)n(C(C)C)c3)nn2-c2ccccc2)[C@H](c2ccc(F)c(F)c2)C1 [Example 535, 1-((3S,4R)-4-(3,4-difluorophenyl)-1-(2-methoxyethyl)pyrrolidin-3-yl)-3-(3-(1-isopropyl-6-oxo-1,6-dihydropyridin-3-yl)-4-methyl-1-phenyl-1H-pyrazol-5-yl)urea] | < 100
COCCN1C[C@@H](NC(=O)Nc2c(C)c(-c3ccc(=O)n(C(C)C)c3)nn2-c2ccccc2)[C@H](c2ccc(F)cc2)C1 [Example 536, 1-((3S,4R)-4-(4-fluorophenyl)-1-(2-methoxyethyl)pyrrolidin-3-yl)-3-(3-(1-isopropyl-6-oxo-1,6-dihydropyridin-3-yl)-4-methyl-1-phenyl-1H-pyrazol-5-yl)urea] | < 100
COCCN1C[C@@H](NC(=O)Nc2c(C)c(OC[C@H](C)O)nn2-c2ccccc2)[C@H](c2cc(F)cc(F)c2)C1 [Example 537, 1-((3S,4R)-4-(3,5-difluorophenyl)-1-(2-methoxyethyl)pyrrolidin-3-yl)-3-(3-((S)-2-hydroxypropoxy)-4-methyl-1-phenyl-1H-pyrazol-5-yl)urea dihydrochloride] | < 100
COCCN1C[C@@H](NC(=O)Nc2c(Cl)c(OCc3ccccc3)nn2C)[C@H](c2ccc(F)c(F)c2)C1 [Example 539, 1-(3-(benzyloxy)-4-chloro-1-methyl-1H-pyrazol-5-yl)-3-((3S,4R)-4-(3,4-difluorophenyl)-1-(2-methoxyethyl)pyrrolidin-3-yl)urea] | 100 to 1000

The next lines start with the values.

IC50 [nM] | Compound
< 100 | CCn1cc(-c2nn(-c3ccccc3)c(NC(=O)N[C@@H]3CN(CCOC)C[C@H]3c3ccc(F)c(F)c3)c2C)cn1 [Example 523, 1-((3S,4R)-4-(3,4-difluorophenyl)-1-(2-methoxyethyl)pyrrolidin-3-yl)-3-(1′-ethyl-4-methyl-1-phenyl-1H, 1′H-[3,4′-bipyrazol]-5-yl)urea]
< 100 | COCCN1C[C@@H](NC(=O)Nc2c(C)c(OS(=O)(=O)C(F)(F)F)nn2-c2ccccc2)[C@H](c2ccc(F)c(F)c2)C1 [Example 525, 5-(3-((3S,4R)-4-(3,4-difluorophenyl)-1-(2-methoxyethyl)pyrrolidin-3-yl)ureido)-4-methyl-1-phenyl-1H-pyrazol-3-yl trifluoromethanesulfonate]
< 100 | COCCN1C[C@@H](NC(=O)Nc2c(C)c(-c3cnc(OC)nc3)nn2-c2ccccc2)[C@H](c2ccc(F)c(F)c2)C1 [Example 526, 1-((3S,4R)-4-(3,4-difluorophenyvl)-1-(2-methoxyethyl)pyrrolidin-3-yl)-3-(3-(2-methoxypyrimidin-5-yl)-4-methyl-1-phenyl-1H-pyrazol-5-yl)urea]
< 100 | COCCN1C[C@@H](NC(=O)Nc2c(C)c(-c3cnc(N(C)C)nc3)nn2-c2ccccc2)[C@H](c2ccc(F)c(F)c2)C1 [Example 527, 1-((3S,4R)-4-(3,4-difluorophenyl)-1-(2-methoxyethyl)pyrrolidin-3-yl)-3-(3-(2-(dimethylamino)pyrimidin-5-yl)-4-methyl-l-phenyl-1H-pyrazol-5-yl)urea]
< 100 | COCCN1C[C@@H](NC(=O)Nc2c(C)c(C3CC3)nn2-c2ccccc2)[C@H](c2ccc(F)c(F)c2)C1 [Example 533, 1-(3-cyclopropyl-4-methyl-1-phenyl-1H-pyrazol-5-yl)-3-((3S,4R)-4-(3,4-difluorophenyl)-1-(2-methoxyethyl)pyrrolidin-3-yl)urea]
< 100 | COCCN1C[C@@H](NC(=O)Nc2c(C)c(C3CC3)nn2-c2ccccc2)[C@H](c2ccc(F)cc2)C1 [Example 534, 1-(3-cyclopropyl-4-methyl-1-phenyl-1H-pyrazol-5-yl)-3-((3S,4R)-4-(4-fluorophenyl)-1-(2-methoxyethyl)pyrrolidin-3-yl)urea]
< 100 | COCCN1C[C@@H](NC(=O)Nc2c(C)c(OCCN3CCNCC3)nn2-c2ccccc2)[C@H](c2ccc(F)c(F)c2)C1 [Example 538, 1-((3S,4R)-4-(3,5-difluorophenyvl)-1-(2-methoxyethyl)pyrrolidin-3-yl)-3-(4-methyl-1-phenyl-3-(2-(piperazin-1-yl)ethoxy)-1H-pyrazol-5-yl)urea trihydrochloride]
< 100 | COCCN1C[C@@H](NC(=O)Nc2c(C)c(OCC(=O)O)nn2-c2ccccc2)[C@H](c2ccc(F)c(F)c2)C1 [Example 540, 2-((5-(3-((3S,4R)-4-(3,4-difluorophenyl)-1-(2-methoxyethyl)pyrrolidin-3-yl)ureido)-4-methyl-1-phenyl-1H-pyrazol-3-yl)oxy)acetic acid]
